Literature values as cited in paper PMC5278571, “Optimal doses of caspofungin during continuous venovenous hemodiafiltration in critically ill patients” (Critical Care, 2017).

What was measured:
Settings in all cases: murine model of disseminated candidiasis; cited from earlier work
Candida glabrata = system: Candida glabrata
Description: (§1) Taking into account a MIC of 0.1 mg/L [4], and using the target pharmacokinetics/pharmacodynamics (PK/PD) described for micafungin, we would have reac ...

C. parapsilosis = system: C. parapsilosis
Description: as §1

Candida albicans = system: Candida albicans
Description: as §1

For micafungin, the “AUC/MIC associated with 1 log kill/24 h” value (Candida glabrata) is given as 450, the “AUC/MIC associated with 1 log kill/24 h” value (C. parapsilosis) is given as 1185 and the “AUC/MIC associated with 1 log kill/24 h” value (Candida albicans) is given as 865.
